Data reported in PubChem BioAssay AID1963449 (Molecular Pharmacology Branch, DTP, NCI, 2024).
Values joined by “and” are separate entries in the source; they are usually repeats but may differ in a detail not shown here. Equal values may be shown once.

System: 596521-263-R-J1-PDC complex spheroid growth
Experiment: Anticancer human tumor 596521-263-R-J1-PDC patient-derived soft tissue sarcoma cell line growth inhibition [Asc]
Details: for viability, T/C: stronger effect = lower value
Outline: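 Complex solid-tumor spheroids incorporating human endothelial and mesenchymal stem cells received single agents or combinations over half-log dilution ranges anchored to clinical Cmax.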

[1] = curve of first compound, second compound 0.00316 µM
[2] = curve of first compound, second compound 0.01 µM
[3] = curve of first compound, second compound 0.0316 µM
[4] = curve of first compound, second compound 0.1 µM
[5] = curve of first compound, second compound 0.316 µM
[6] = curve of first compound, second compound 1 µM
[7] = second compound 0.00316 µM, first compound 0.00316 µM
[8] = second compound 0.00316 µM, first compound 0.01 µM
[9] = second compound 0.00316 µM, first compound 0.0316 µM
[10] = second compound 0.00316 µM, first compound 0.1 µM
[11] = second compound 0.01 µM, first compound 0.00316 µM
[12] = second compound 0.01 µM, first compound 0.01 µM
[13] = second compound 0.01 µM, first compound 0.0316 µM
[14] = second compound 0.01 µM, first compound 0.1 µM
[15] = second compound 0.0316 µM, first compound 0.00316 µM
[16] = second compound 0.0316 µM, first compound 0.01 µM
[17] = second compound 0.0316 µM, first compound 0.0316 µM
[18] = second compound 0.0316 µM, first compound 0.1 µM
[19] = second compound 0.1 µM, first compound 0.00316 µM
[20] = second compound 0.1 µM, first compound 0.01 µM
[21] = second compound 0.1 µM, first compound 0.0316 µM
[22] = second compound 0.1 µM, first compound 0.1 µM
[23] = second compound 0.316 µM, first compound 0.00316 µM
[24] = second compound 0.316 µM, first compound 0.01 µM
[25] = second compound 0.316 µM, first compound 0.0316 µM
[26] = second compound 0.316 µM, first compound 0.1 µM
[27] = second compound 1 µM, first compound 0.00316 µM
[28] = second compound 1 µM, first compound 0.01 µM
[29] = second compound 1 µM, first compound 0.0316 µM
[30] = second compound 1 µM, first compound 0.1 µM
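Note: spheroids exposed to compounds for 7 days.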

CCN1CCN(Cc2ccc(Nc3ncc(F)c(-c4cc(F)c5nc(C)n(C(C)C)c5c4)n3)nc2)CC1 + CNC(C)C(=O)NC1CN(S(=O)(=O)c2cccc(S(=O)(=O)N3CCC4CCC(C(=O)NC(c5ccccc5)c5ccccc5)N4C(=O)C(NC(=O)C(C)NC)C3)c2)CCC2CCC(C(=O)NC(c3ccccc3)c3ccccc3)N2C1=O
IC50 [1]: > 1000 nM
IC50 [2]: > 1000 nM
IC50 [3]: > 1000 nM
IC50 [4]: > 1000 nM
IC50 [5]: > 1000 nM
IC50 [6]: > 1000 nM
viability, T/C [7]: 90.8%
viability, T/C [8]: 81.4%
viability, T/C [9]: 77%
viability, T/C [10]: 79.8%
viability, T/C (second compound 0.00316 µM, first compound 0.316 µM): 81.7%
viability, T/C (second compound 0.00316 µM, first compound 1 µM): 74.1%
viability, T/C [11]: 98.6%
viability, T/C [12]: 87.5%
viability, T/C [13]: 81.2%
viability, T/C [14]: 84.6%
viability, T/C (second compound 0.01 µM, first compound 0.316 µM): 81.6%
viability, T/C (second compound 0.01 µM, first compound 1 µM): 91.3%
viability, T/C [15]: 79.9%
viability, T/C [16]: 83.4%
viability, T/C [17]: 79%
viability, T/C [18]: 76.8%
viability, T/C (second compound 0.0316 µM, first compound 0.316 µM): 93.5%
viability, T/C (second compound 0.0316 µM, first compound 1 µM): 76%
viability, T/C [19]: 73%
viability, T/C [20]: 78.8%
viability, T/C [21]: 76%
viability, T/C [22]: 86%
viability, T/C (second compound 0.1 µM, first compound 0.316 µM): 79.7%
viability, T/C (second compound 0.1 µM, first compound 1 µM): 84.8%
viability, T/C [23]: 75.4%
viability, T/C [24]: 78.1%
viability, T/C [25]: 74.8%
viability, T/C [26]: 77.3%
viability, T/C (second compound 0.316 µM, first compound 0.316 µM): 84.7%
viability, T/C (second compound 0.316 µM, first compound 1 µM): 78.3%
viability, T/C [27]: 70.4%
viability, T/C [28]: 76%
viability, T/C [29]: 72.3%
viability, T/C [30]: 70.7%
viability, T/C (second compound 1 µM, first compound 0.316 µM): 72.7%
viability, T/C (second compound 1 µM, first compound 1 µM): 69.4%

NC(=O)C(=Cn1cnc(-c2cc(C(F)(F)F)cc(C(F)(F)F)c2)n1)c1cncnc1
viability, T/C (compound 0.000949 µM): 104% and 98.5% and 48.5%
viability, T/C (compound 0.003 µM): 91.6% and 94.9% and 49.6%
viability, T/C (compound 0.00949 µM): 87.5% and 83.8% and 46.9%
viability, T/C (compound 0.03 µM): 58.5% and 51.1% and 32.2%
viability, T/C (compound 0.0949 µM): 18.1% and 18.5% and 16.5%
viability, T/C (compound 0.3 µM): 11.2% and 10.3% and 10%

Cc1c(S(C)(=O)=O)c(-c2cc(F)cc(N3CCN(c4ccc(NS(=O)(=O)c5ccc(NC(CCN6CCC(C(=O)OCCCP(=O)(O)O)CC6)CSc6ccccc6)c(S(=O)(=O)C(F)(F)F)c5)cc4)CC3)c2)c(-c2ccc(Cl)cc2)n1C(C)C (centres undefined)
viability, T/C (compound 0.0316 µM): 101% [middle of 7 runs]
viability, T/C (compound 0.1 µM): 93.1% [middle of 7 runs]
viability, T/C (compound 0.316 µM): 91.5% [middle of 7 runs]
viability, T/C (compound 1 µM): 77.7% [middle of 7 runs]
viability, T/C (compound 3.16 µM): 63% [middle of 7 runs]
viability, T/C (compound 10 µM): 55.6% [middle of 7 runs]
IC50 (compound alone, run of 11/07/2022): > 10000 nM

O=C(c1ccc(F)c(F)c1Nc1ccc(I)cc1F)N1CC(O)([C@@H]2CCCCN2)C1 + CCN1C(C(=O)NC23CCC(C(=O)O)(CC2)CC3)C(c2cccc(Cl)c2F)C2(C(=O)Nc3cc(Cl)ccc32)C12CCCCC2
IC50 (curve of first compound, second compound 0.00949 µM): 493 nM
IC50 (curve of first compound, second compound 0.03 µM): 466 nM
IC50 (curve of first compound, second compound 0.0949 µM): 418 nM
IC50 (curve of first compound, second compound 0.3 µM): 428 nM
IC50 (curve of first compound, second compound 0.949 µM): 356 nM
IC50 (curve of first compound, second compound 3 µM): 315 nM
viability, T/C (second compound 0.00949 µM, first compound 0.00316 µM): 113%
viability, T/C (second compound 0.00949 µM, first compound 0.01 µM): 98.4%
viability, T/C (second compound 0.00949 µM, first compound 0.0316 µM): 112%
viability, T/C (second compound 0.00949 µM, first compound 0.1 µM): 83.6%
viability, T/C (second compound 0.00949 µM, first compound 0.316 µM): 58.4%
viability, T/C (second compound 0.00949 µM, first compound 1 µM): 38.8%
viability, T/C (second compound 0.03 µM, first compound 0.00316 µM): 104%
viability, T/C (second compound 0.03 µM, first compound 0.01 µM): 100%
viability, T/C (second compound 0.03 µM, first compound 0.0316 µM): 103%
viability, T/C (second compound 0.03 µM, first compound 0.1 µM): 81.9%
viability, T/C (second compound 0.03 µM, first compound 0.316 µM): 57.8%
viability, T/C (second compound 0.03 µM, first compound 1 µM): 36.4%
viability, T/C (second compound 0.0949 µM, first compound 0.00316 µM): 101%
viability, T/C (second compound 0.0949 µM, first compound 0.01 µM): 96.1%
viability, T/C (second compound 0.0949 µM, first compound 0.0316 µM): 112%
viability, T/C (second compound 0.0949 µM, first compound 0.1 µM): 84.3%
viability, T/C (second compound 0.0949 µM, first compound 0.316 µM): 56.4%
viability, T/C (second compound 0.0949 µM, first compound 1 µM): 34.3%
viability, T/C (second compound 0.3 µM, first compound 0.00316 µM): 119%
viability, T/C (second compound 0.3 µM, first compound 0.01 µM): 94.9%
viability, T/C (second compound 0.3 µM, first compound 0.0316 µM): 101%
viability, T/C (second compound 0.3 µM, first compound 0.1 µM): 79.1%
viability, T/C (second compound 0.3 µM, first compound 0.316 µM): 51.4%
viability, T/C (second compound 0.3 µM, first compound 1 µM): 37%
viability, T/C (second compound 0.949 µM, first compound 0.00316 µM): 97.8%
viability, T/C (second compound 0.949 µM, first compound 0.01 µM): 99.8%
viability, T/C (second compound 0.949 µM, first compound 0.0316 µM): 98.2%
viability, T/C (second compound 0.949 µM, first compound 0.1 µM): 82.9%
viability, T/C (second compound 0.949 µM, first compound 0.316 µM): 51.4%
viability, T/C (second compound 0.949 µM, first compound 1 µM): 39.7%
viability, T/C (second compound 3 µM, first compound 0.00316 µM): 97.1%
viability, T/C (second compound 3 µM, first compound 0.01 µM): 84.9%
viability, T/C (second compound 3 µM, first compound 0.0316 µM): 91.5%
viability, T/C (second compound 3 µM, first compound 0.1 µM): 65.6%
viability, T/C (second compound 3 µM, first compound 0.316 µM): 53.4%
viability, T/C (second compound 3 µM, first compound 1 µM): 44.5%

Cn1ncnc1[C@H]1c2n[nH]c(=O)c3cc(F)cc(c23)N[C@@H]1c1ccc(F)cc1 + CNC(C)C(=O)NC1CN(S(=O)(=O)c2cccc(S(=O)(=O)N3CCC4CCC(C(=O)NC(c5ccccc5)c5ccccc5)N4C(=O)C(NC(=O)C(C)NC)C3)c2)CCC2CCC(C(=O)NC(c3ccccc3)c3ccccc3)N2C1=O
IC50 [1]: < 0.316 nM
IC50 [2]: > 100 nM
IC50 [3]: > 100 nM
IC50 [4]: > 100 nM
IC50 [5]: > 100 nM
IC50 [6]: > 100 nM
viability, T/C (second compound 0.00316 µM, first compound 0.000316 µM): 16.1%
viability, T/C (second compound 0.00316 µM, first compound 0.001 µM): 16%
viability, T/C [7]: 15.3%
viability, T/C [8]: 16.5%
viability, T/C [9]: 15.2%
viability, T/C [10]: 15.6%
viability, T/C (second compound 0.01 µM, first compound 0.000316 µM): 76%
viability, T/C (second compound 0.01 µM, first compound 0.001 µM): 62.1%
viability, T/C [11]: 63.8%
viability, T/C [12]: 64.2%
viability, T/C [13]: 67.4%
viability, T/C [14]: 57.3%
viability, T/C (second compound 0.0316 µM, first compound 0.000316 µM): 92.6%
viability, T/C (second compound 0.0316 µM, first compound 0.001 µM): 75.9%
viability, T/C [15]: 73%
viability, T/C [16]: 76.9%
viability, T/C [17]: 64.1%
viability, T/C [18]: 64.7%
viability, T/C (second compound 0.1 µM, first compound 0.000316 µM): 81.9%
viability, T/C (second compound 0.1 µM, first compound 0.001 µM): 81%
viability, T/C [19]: 79.9%
viability, T/C [20]: 71.1%
viability, T/C [21]: 62.2%
viability, T/C [22]: 60.3%
viability, T/C (second compound 0.316 µM, first compound 0.000316 µM): 83.3%
viability, T/C (second compound 0.316 µM, first compound 0.001 µM): 74.7%
viability, T/C [23]: 79.3%
viability, T/C [24]: 64%
viability, T/C [25]: 65.1%
viability, T/C [26]: 60.6%
viability, T/C (second compound 1 µM, first compound 0.000316 µM): 73.2%
viability, T/C (second compound 1 µM, first compound 0.001 µM): 76.8%
viability, T/C [27]: 71.5%
viability, T/C [28]: 77.3%
viability, T/C [29]: 64.1%
viability, T/C [30]: 58.3%
